In patent US11400059B2, “Treatment of pain and/or pain related symptoms associated with dysmenorrhea” (ALYRA BIOTECH PTY LTD, priority 2017, dated 2022):

Legend:
Format in all cases: cell-based
[1] = target: T1, hDectin-1b (Homo sapiens, UniProt Q9BXN2); assay: Human CLR agonist screening, NF-κB SEAP reporter in HEK293 cells; conditions: agonist mode, Curdlan 100 μg/mL
T1 construct: expressed in transfected cells; host or cells: HEK293
Description: (§1) Toll-Like Receptor (TLR), NOD-Like Receptor (NLR) and C-Type Lectin Receptor (CLR) stimulation were tested by assessing NF-κB activation in HEK293 cells expressing a given TLR, NLR or CLR. The activity of the test articles was tested at one concentration and compared to control ligands. These steps were performed in triplicate.
(§2) hDectin-1a and hDectin-1b: WGP Soluble (0-glucan from S. cerevisiae) at 10 ng/mL Antagonist: 5 ng/mL. Curdlan at 100 μg/mL. Antagonist: 100 μg/mL. Zymosan Depleted (hot alkali treated S. cerevisiae) at 5 μg/mL Antagonist: 3 μg/mL.
(§3) In a 96-well plate (200 μL total volume) containing the appropriate cells (50,000-75,000 cells/well), 20 μL of the test article or the positive control ligand was added to the wells. For the antagonist assay, the test article was incubated with the cells, at 37° C. with 5% CO2, for 30 minutes prior to the addition of the positive control ligand to the wells. The media added to the wells was designed for the detection of NF-κB induced SEAP expression. After a 16-24 hr incubation the optical density (OD) was read at 650 nm on a Molecular Devices SpectraMax 340PC absorbance detector.
(§4) Fold Induction (Ratio of Average Induced Value to Average Non-Induced Value): […]

[2] = target: T2, hDectin-1a (Homo sapiens, UniProt Q9BXN2); assay: as above; conditions: agonist mode, Curdlan 100 μg/mL
T2 construct: expressed in transfected cells; host or cells: HEK293
Description: as §1, §2, §3, §4

[3] = target: T3, hTLR7 (Homo sapiens, UniProt Q9NYK1); assay: Human TLR/NLR agonist screening, NF-κB SEAP reporter in HEK293 cells; conditions: agonist mode, Control+ = CL307 1 μg/mL
T3 construct: expressed in transfected cells; host or cells: HEK293
T3 sequence (Q9NYK1 27-1049): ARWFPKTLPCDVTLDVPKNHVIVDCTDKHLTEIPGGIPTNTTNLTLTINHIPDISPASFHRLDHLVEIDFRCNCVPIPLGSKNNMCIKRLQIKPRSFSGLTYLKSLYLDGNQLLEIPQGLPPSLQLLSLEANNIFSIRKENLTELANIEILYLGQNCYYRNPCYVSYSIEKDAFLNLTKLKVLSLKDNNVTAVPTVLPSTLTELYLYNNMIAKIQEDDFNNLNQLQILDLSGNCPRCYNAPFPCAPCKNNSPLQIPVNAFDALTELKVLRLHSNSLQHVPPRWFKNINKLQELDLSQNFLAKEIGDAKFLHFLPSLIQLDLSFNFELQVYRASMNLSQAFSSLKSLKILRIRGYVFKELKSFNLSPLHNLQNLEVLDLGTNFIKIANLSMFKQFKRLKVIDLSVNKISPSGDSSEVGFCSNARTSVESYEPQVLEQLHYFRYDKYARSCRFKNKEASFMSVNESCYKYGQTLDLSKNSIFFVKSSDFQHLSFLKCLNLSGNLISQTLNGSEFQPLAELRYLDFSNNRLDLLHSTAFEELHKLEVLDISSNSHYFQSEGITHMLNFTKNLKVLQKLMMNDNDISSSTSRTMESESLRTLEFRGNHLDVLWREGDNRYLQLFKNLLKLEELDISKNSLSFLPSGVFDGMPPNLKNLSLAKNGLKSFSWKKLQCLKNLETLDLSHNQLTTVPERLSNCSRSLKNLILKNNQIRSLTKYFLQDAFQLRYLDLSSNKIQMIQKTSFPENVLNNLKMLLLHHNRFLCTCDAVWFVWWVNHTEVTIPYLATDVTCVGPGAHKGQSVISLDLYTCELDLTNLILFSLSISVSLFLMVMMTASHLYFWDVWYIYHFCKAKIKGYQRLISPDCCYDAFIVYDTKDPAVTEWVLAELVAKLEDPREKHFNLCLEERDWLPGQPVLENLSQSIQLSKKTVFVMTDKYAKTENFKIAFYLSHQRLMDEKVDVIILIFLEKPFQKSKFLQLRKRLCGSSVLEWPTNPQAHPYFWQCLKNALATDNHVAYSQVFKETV
Description: as §1
hTLR7: CL307 at 1 μg/mL Antagonist: 10 ng/mL.
as §3
The fold induction (ratio of average induced value to average non-induced value) results were as follows: […]

T1 sequence (Q9BXN2 1-201 isoform Q9BXN2-2): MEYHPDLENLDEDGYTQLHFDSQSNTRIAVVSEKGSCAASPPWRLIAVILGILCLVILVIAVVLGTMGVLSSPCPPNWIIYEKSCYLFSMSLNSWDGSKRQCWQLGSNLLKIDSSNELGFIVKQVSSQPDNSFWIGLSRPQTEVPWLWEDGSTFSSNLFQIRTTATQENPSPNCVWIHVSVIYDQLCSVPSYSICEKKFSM
T2 sequence (Q9BXN2 whole entry): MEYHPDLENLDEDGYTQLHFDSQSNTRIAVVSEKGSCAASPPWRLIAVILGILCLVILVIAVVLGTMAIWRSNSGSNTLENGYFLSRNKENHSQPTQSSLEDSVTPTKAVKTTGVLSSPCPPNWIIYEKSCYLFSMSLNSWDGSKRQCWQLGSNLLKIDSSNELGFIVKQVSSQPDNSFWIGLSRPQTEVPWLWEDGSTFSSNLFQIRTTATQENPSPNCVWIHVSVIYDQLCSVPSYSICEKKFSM

Compound | Fold induction (ratio of average induced value to average non-induced value) [1] | Fold induction (ratio of average induced value to average non-induced value) [2] | Fold induction (ratio of average induced value to average non-induced value) [3]
Curdlan | 8 | 6 | –
CCCCNc1nc(N)c2[nH]c(=O)n(Cc3ccc(C(=O)NCC(=O)NCCCNCCCCNCCCN)cc3)c2n1 [CL307] | – | – | 34
